Assay results: the supplement of paper PMC6045584
± gives the standard deviation of the averaged measurements.

Compound: COc1ccc(C2=N[C@@H](c3ccc(Cl)cc3)[C@@H](c3ccc(Cl)cc3)N2C(=O)N2CCNC(=O)C2)c(OC(C)C)c1 [NUTLIN3]
Assay: surviving fraction relative to DMSO-only wells; higher = less growth inhibition
Details: 500 nM; exposure time: 5 days
Outline: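 Viability was determined by CellTiter-Glo luminescence, expressed as surviving fraction normalised to the median of DMSO-only wells. The cells were log-phase tumour cell lines seeded at 250–500 per well in 384-well plates and, after 24 hours, exposed continuously for five days to inhibitors at 0.5, 1, 5, 10, 50, 100, 500 and 1000 nM. Three screens per line were run, keeping only lines with replicate Pearson r >0.7 and median Z' >0.3.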

| Test System | surviving fraction |
| --- | --- |
| SUM149.B1*.S BREAST | 1.14 ± 0.024 |
| 93VU HEADNECK | 1.05 ± 0.12 |
| LM7 BONE | 1.03 ± 0.1 |
| 143B BONE | 1.05 ± 0.017 |
| SUM159 BREAST | 0.946 ± 0.17 |
| SUM149 BREAST | 1.04 ± 0.047 |
| MDAMB361 BREAST | 0.907 ± 0.067 |
| SAOS2 BONE | 1.12 ± 0.033 |
| ASKA SYNOVIAL | 0.748 ± 0.035 |
| HCC1395 BREAST | 0.999 ± 0.094 |
| HCC1954 BREAST | 1.15 ± 0.051 |
| CME SYNOVIAL | 1.4 ± 0.073 |
| VCAP PROSTATE | 1.03 ± 0.14 |
| YAMATO SYNOVIAL | 1.4 ± 0.086 |
| HCC202 BREAST | 1.23 ± 0.16 |
| HELA CERVIX | 1.08 ± 0.03 |
| SG27 HEADNECK | 0.788 ± 0.11 |
| CAL72 BONE | 1.1 ± 0.084 |
| MDAMB134 BREAST | 1.021 ± 0.0042 |
| C33A CERVIX | 0.959 ± 0.068 |

| Test System | surviving fraction |
| --- | --- |
| SKBR3 BREAST | 0.91 ± 0.029 |
| MHM BONE | 0.963 ± 0.018 |
| VP229 BREAST | 1.13 ± 0.09 |
| SYO1 SYNOVIAL | 0.588 ± 0.026 |
| ZR751 BREAST | 0.786 ± 0.083 |
| KPD BONE | 1.01 ± 0.017 |
| SIHA CERVIX | 1.11 ± 0.15 |
| DU4475 BREAST | 0.832 ± 0.42 |
| BT549 BREAST | 1.17 ± 0.13 |
| COLO320DM LARGE INTESTINE | 1.12 ± 0.065 |
| T47D BREAST | 0.965 ± 0.075 |
| H23 LUNG | 1.05 ± 0.044 |
| NCIH441 LUNG | 1.2 ± 0.06 |
| HCT15 LARGE INTESTINE | 1.04 ± 0.056 |
| SCC90 HEADNECK | 0.997 ± 0.098 |
| MDAMB453 BREAST | 1.04 ± 0.066 |
| MG63 BONE | 0.989 ± 0.042 |
| A549 LUNG | 1.04 ± 0.053 |
| MDAMB468 BREAST | 1.04 ± 0.049 |

Same assay, conditions: 1000 nM; exposure time: 5 days

| Test System | surviving fraction |
| --- | --- |
| SUM149.B1*.S BREAST | 1.11 ± 0.04 |
| 93VU HEADNECK | 1.02 ± 0.025 |
| LM7 BONE | 0.994 ± 0.05 |
| 143B BONE | 1.01 ± 0.073 |
| SUM159 BREAST | 0.916 ± 0.25 |
| SUM149 BREAST | 1.01 ± 0.092 |
| MDAMB361 BREAST | 0.825 ± 0.025 |
| SAOS2 BONE | 1.043 ± 0.0023 |
| ASKA SYNOVIAL | 0.512 ± 0.014 |
| HCC1395 BREAST | 1.13 ± 0.16 |
| HCC1954 BREAST | 0.99 ± 0.036 |
| CME SYNOVIAL | 1.22 ± 0.09 |
| VCAP PROSTATE | 1.11 ± 0.027 |
| YAMATO SYNOVIAL | 1.27 ± 0.13 |
| HCC202 BREAST | 1.23 ± 0.21 |
| HELA CERVIX | 1.13 ± 0.039 |
| SG27 HEADNECK | 0.668 ± 0.06 |
| CAL72 BONE | 1.11 ± 0.024 |
| MDAMB134 BREAST | 0.896 ± 0.028 |
| C33A CERVIX | 1.03 ± 0.094 |

| Test System | surviving fraction |
| --- | --- |
| SKBR3 BREAST | 0.885 ± 0.077 |
| MHM BONE | 0.9187 ± 0.0085 |
| VP229 BREAST | 0.975 ± 0.037 |
| SYO1 SYNOVIAL | 0.468 ± 0.012 |
| ZR751 BREAST | 0.747 ± 0.024 |
| KPD BONE | 0.962 ± 0.075 |
| SIHA CERVIX | 1.14 ± 0.11 |
| DU4475 BREAST | 0.673 ± 0.47 |
| BT549 BREAST | 1.08 ± 0.25 |
| COLO320DM LARGE INTESTINE | 1.19 ± 0.17 |
| T47D BREAST | 0.937 ± 0.024 |
| H23 LUNG | 0.912 ± 0.031 |
| NCIH441 LUNG | 1.14 ± 0.065 |
| HCT15 LARGE INTESTINE | 1.01 ± 0.017 |
| SCC90 HEADNECK | 1.04 ± 0.098 |
| MDAMB453 BREAST | 1.05 ± 0.035 |
| MG63 BONE | 1.01 ± 0.043 |
| A549 LUNG | 1.08 ± 0.061 |
| MDAMB468 BREAST | 0.982 ± 0.041 |
